Measurements from US20250090493A1, “THERAPEUTIC COMPOSITION DELIVERY DEVICE” (Helios Cardio Inc., priority 2021, published 2025).

Legend:
[1] = Amiodarone quantification in tissues by LC/MS after pericardial repair with amiodarone-soaked EBM patch, or IV amiodarone control, ovine model; format: in vivo; details: sheep
From the text: Specifically, EBM under the tradename CardiaMend™ was used. The device was approximately 1 mm thick (range 0.75-1.54 mm). An ovine model was used for a pericardial repair procedure. […] The EBM patch was then inserted through a hole cut through the pericardium via a mini-thoracotomy approach and secured with sutures at the margins of the pericardial defect. Following closure of the superficial muscle and skin, the animals were recovered, and housed until sacrifice at 3 days, 7 days, and 28 days. […] Following sacrifice, the repair site was explored, and the implant and heart were grossly evaluated for signs of inflammation, scarring, or fibrosis. Gross images were acquired.

[2] = as above; format: in vivo; details: sheep, 1000 mg/day, Maximum IV delivery-positive control Average, 1,000 mg/day via IV for 14 days

- Amiodarone concentration, Myocardium, Day 3 Average ([1]; EBM 7 cm by 10 cm soaked in 6 mL of 50 mg/mL amiodarone hydrochloride, pericardial patch, myocardium, day 3): 63.50 µg/g
- Amiodarone concentration, Left Atrium, EBM drug delivery Day 3-7 Average ([1]; EBM drug delivery, local single dose, left atrium, day 3-7): 96 µg/g
- Amiodarone concentration, Liver, EBM drug delivery Day 3-7 Average ([1]; EBM drug delivery, local single dose, liver, day 3-7): 1 µg/g
- Amiodarone concentration, Lung, EBM drug delivery Day 3-7 Average ([1]; EBM drug delivery, local single dose, lung, day 3-7): 4 µg/g
- Amiodarone concentration, Right Atrium, EBM drug delivery Day 3-7 Average ([1]; EBM drug delivery, local single dose, right atrium, day 3-7): 83 µg/g
- Amiodarone concentration, Ventricles, EBM drug delivery Day 3-7 Average ([1]; EBM drug delivery, local single dose, ventricles, day 3-7): 14 µg/g
- Amiodarone concentration, Liver, Day 28 Average ([1]; amiodarone-soaked EBM pericardial patch, liver, day 28): below the limit of detection
- concentration at 14 day ([2]; left atrium): 19000 ng/g
- concentration at 14 day ([2]; liver): 8000 ng/g
- concentration at 14 day ([2]; lung): 27000 ng/g
- concentration at 14 day ([2]; right atrium): 33000 ng/g
- concentration at 14 day ([2]; ventricles): 9000 ng/g
SMILES: CCCCc1oc2ccccc2c1C(=O)c1cc(I)c(OCCN(CC)CC)c(I)c1 [Amiodarone, amiodarone]
